According to patent US20260007758A1, “SO[…]-2 RECEPTOR (SST2R) NON-PEPTIDE DRUG CONJUGATES AND USES THEREOF” (Crinetics Pharmaceuticals, Inc., priority 2024, published 2026):

Tests used:
Assay type in all cases: cell-based
[1] = target: T1, human somatostatin receptor subtype 2 (Homo sapiens, UniProt P30874); assay: Functional assay for SSTR2 agonists (HTRF cAMP); settings: CHO-K1 cells stably expressing human SST2; NKH477-stimulated cAMP; 20 min at 37 C; read-out: hSST2 cAMP Avg EC50
T1 construct: expressed in transfected cells
T1 sequence (P30874 whole entry): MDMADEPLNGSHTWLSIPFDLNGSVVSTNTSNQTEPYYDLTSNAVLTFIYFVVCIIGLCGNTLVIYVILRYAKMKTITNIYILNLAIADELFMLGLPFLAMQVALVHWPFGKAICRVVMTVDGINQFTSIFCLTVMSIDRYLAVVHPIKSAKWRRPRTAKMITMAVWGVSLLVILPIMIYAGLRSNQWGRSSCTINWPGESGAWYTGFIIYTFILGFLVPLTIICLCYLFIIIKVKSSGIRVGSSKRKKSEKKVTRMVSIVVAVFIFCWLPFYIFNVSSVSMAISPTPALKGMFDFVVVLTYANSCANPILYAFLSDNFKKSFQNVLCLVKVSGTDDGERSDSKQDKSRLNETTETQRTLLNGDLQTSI
Excerpt: General overview: All five SSTR subtypes are Gi coupled G-protein coupled receptors (GPCRs) that lead to decreases in intracellular cyclic AMP (cAMP) when activated by an agonist. Therefore, measurement of intracellular cAMP levels can be used to assess whether compounds of the invention are agonists of SSTR subtypes (John Kelly, Troy Stevens, W. Joseph Thompson, and Roland Seifert, Current Protocols in Pharmacology. 2005, 2.2.1-2.2). One example of an intracellular cAMP assay is described below.
Four days prior to the assay, 2,000 Chinese hamster ovary cells (CHO-K1, ATCC #CCL-61) stably expressing the human somatostatin receptor subtype 2 are plated in each well of a 96-well tissue culture-treated plate in Ham's F12 growth media (ThermoFisher #10-080-CM) supplemented with 10% donor bovine serum (Gemini Bio-Products #100-506), 100 U/mL penicillin; 100 ug/mL streptomycin, 2 mM L-glutamine (Gemini Bio-Products #400-110) and 0.2 mg/mL hygromycin B (GoldBio #31282-04-9). The cells are cultured at 37° C., 5% CO2 and 95% humidity. cAMP is measured with HTRF dynamic cAMP assay (Cisbio. #62AM5PEJ) per manufacturer's instructions. […] The cells are incubated for 20 minutes at 37° C. (the final concentration of the compounds of the invention are typically 0-10,000 nM). The cells are treated with 50 μL of lysis buffer (HRTF cAMP kit, Cisbio) and incubated at room temperature for 30 minutes with rotary shaking at 600 rpm, and then diluted with 150 μL of stimulation buffer and shaken for an additional five minutes at 300 rpm. The lysate is transferred to 384-well plates and incubated for 1-24 hours at room temperature, and cAMP accumulation is detected by d2-labeled cAMP and Anti-cAMP-Cryptate. The time-resolved fluorescent signal is read using a m1000 Pro (Tecan) or CLARIOStar (BMG Labtech) microplate reader, where the samples are excited with light at 340 nm and emission light is measured at 620 nm and 665 nm. The data is expressed as a calculation of the fluorescence ratio (665 nm/620 nm). The intracellular cAMP concentrations are calculated by regression to a standard curve and are plotted vs, the concentration of the compounds of the invention. The EC50 of the compounds are calculated using standard methods. All data manipulations are in GraphPad Prism v9 (GraphPad, San Diego, CA).

SST2 = target: T2, SST2 (Homo sapiens, UniProt P30874); assay: PathHunter CHO-K1 SST2 Internalization Assay; settings: PathHunter CHO-K1 SST2 cells; 90 min at 37 C; luminescence; read-out: Internalization EC50
T2 construct: host or cells: PathHunter CHO-K1 SST2 cells
T2 sequence (P30874 whole entry): as above
Method: NDCs of the present invention were assessed in vitro using the human PathHunter CHO-K1 SST2 β-arrestin2 and PathHunter CHO-K1 SST2 Internalization Assays from DiscoverX. The CHO-K cells were seeded in 20 μLs of cell culture medium in a white-walled 384 well tissue culture-compatible plate at a density of 2500 cells/well. After a 48-hour incubation, cells were treated with 5 μLs of a 1:3 serially diluted SST2 NDC prepared at 5× concentration with a final top compound concentration of 10 uM for 90 min at 37 C and in 5% CO2. 11 dilutions were tested as well as one treatment that was compound free. After incubation, the media containing treatments were discarded and 20 μL of a working solution of Beta-Glo from Promega Beta-Go Assay System was added to each well. The plate was then incubated for 60 min at room temperature in the dark. Luminescence was measured using a Tecan plate reader. IC50 curves were generated using the nonlinear regression analysis (four-parameters) with GraphPad Prism 9. Results were the average of duplicates and are corrected for background.

[2] = system: NCI-H524 human small cell lung cancer cells; assay: H524 assay: inhibition of cell proliferation (CellTiter Glo); settings: 2 h treatment, washout, additional 70 h incubation
Method: NDCs of the present invention were assessed in an in vitro assay evaluating the inhibition of cell proliferation. NCI-H524 (ATCC) human small cell lung cancer cells were plated in 96-well V-bottom plates (Costar) at a concentration of 5,000 cells/well. 24 h later, the cells were treated for 2 h with a NDC. NDC starting dose was 1 uM and two-fold serial dilutions were done for a total of 11 points. After 2 h of treatment, cells were spun down, and the drug-containing media was removed, and fresh complete media was added and used to resuspend the cells, which were spun again. After removal of the media, the cells were resuspended in complete medium and incubated for an additional 70 h. Cell proliferation was assessed using the CellTiter Glo Assay according to the standard protocol (Promega). Luminescence was measured using a TECAN plate reader. Percent proliferation inhibition was calculated using the following formula: % inhibition=(Luminescence Control−Luminescence Treatment)/Luminescence Control*100. IC50 curves were generated using the nonlinear regression analysis (four-parameter) with GraphPad Prism 9.

Structure (SMILES)	EC50 [1] [nM]	EC50 (SST2) [nM]	EC50 [2] [nM]
CC[C@H](C)[C@@H]([C@@H](CC(=O)N1CCC[C@H]1[C@H](OC)[C@@H](C)C(=O)N[C@H](C)[C@@H](O)c1ccccc1)OC)N(C)C(=O)[C@@H](NC(=O)[C@H](C(C)C)N(C)C(=O)OCc1ccc(NC(=O)[C@H](C)NC(=O)[C@@H](NC(=O)CCOCCN2CCC(C(=O)NCCNc3ncc(-c4cc(C)cc(F)c4)c(N4CCC(N)CC4)c3-c3nc4ccc(Cl)cc4[nH]3)CC2)C(C)C)c(O[C@@H]2O[C@H](C(=O)O)[C@@H](O)[C@H](O)[C@H]2O)c1)C(C)C [Compound 93]	0.28	33	120
CC[C@H](C)[C@@H]([C@@H](CC(=O)N1CCC[C@H]1[C@H](OC)[C@@H](C)C(=O)N[C@H](C)[C@@H](O)c1ccccc1)OC)N(C)C(=O)[C@H](C)NC(=O)[C@H](C(C)C)N(C)C(=O)OCc1ccc(NC(=O)[C@H](C)NC(=O)[C@@H](NC(=O)CCOCCNC(=O)CCNc2ncc(-c3cc(C)cc(F)c3)c(N3CCC(N)CC3)c2-c2nc3ccc(Cl)cc3[nH]2)C(C)C)c(O[C@@H]2O[C@H](C(=O)O)[C@@H](O)[C@H](O)[C@H]2O)c1 [Compound 194]	0.16	7.6	21
CC[C@H](C)[C@@H]([C@@H](CC(=O)N1CCC[C@H]1[C@H](OC)[C@@H](C)C(=O)N[C@H](C)[C@@H](O)c1ccccc1)OC)N(C)C(=O)[C@@H](NC(=O)[C@H](C(C)C)N(C)C(=O)OCc1ccc(NC(=O)[C@H](CCCNC(N)=O)NC(=O)[C@@H](NC(=O)c2cc(NCCOCCC(=O)NCCNc3ncc(-c4cc(C)cc(F)c4)c(N4CCC(N)CC4)c3-c3nc4ccc(Cl)cc4[nH]3)cc(C(=O)NCCN)c2)C(C)C)cc1)C(C)C [Compound 184]	0.063	1.8	240
CC[C@H](C)[C@@H]([C@@H](CC(=O)N1CCC[C@H]1[C@H](OC)[C@@H](C)C(=O)N[C@H](C)[C@@H](O)c1ccccc1)OC)N(C)C(=O)[C@@H](NC(=O)[C@H](C(C)C)N(C)C(=O)OCc1ccc(NC(=O)[C@H](CCCNC(N)=O)NC(=O)[C@@H](NC(=O)c2ccc(NC(=O)CCOCCC(=O)NCCNc3ncc(-c4cc(C)cc(F)c4)c(N4CCC(N)CC4)c3-c3nc4ccc(Cl)cc4[nH]3)cc2O[C@@H]2OC(C(=O)O)[C@@H](O)[C@H](O)[C@H]2O)C(C)C)cc1)C(C)C (stereo partly drawn) [Compound 182]	0.093	11	2300
CC[C@H](C)[C@@H]([C@@H](CC(=O)N1CCC[C@H]1[C@H](OC)[C@@H](C)C(=O)N[C@H](C)[C@@H](O)c1ccccc1)OC)N(C)C(=O)[C@@H](NC(=O)[C@H](C(C)C)N(C)C(=O)OCc1ccc(NC(=O)[C@H](CCCNC(N)=O)NC(=O)[C@@H](NC(=O)CCOCCC(=O)NCCNc2ncc(-c3cc(C)cc(F)c3)c(N3CCC(N)CC3)c2-c2nc3ccc(Cl)cc3[nH]2)C(C)C)cc1C(=O)N[C@@H](CCCCNC(=O)CCCCc1ccc(I)cc1)C(=O)O)C(C)C [Compound 246]	0.1	1.5	74
CC[C@H](C)[C@@H]([C@@H](CC(=O)N1CCC[C@H]1[C@H](OC)[C@@H](C)C(=O)N[C@H](C)[C@@H](O)c1ccccc1)OC)N(C)C(=O)[C@@H](NC(=O)[C@H](C(C)C)N(C)C(=O)OCc1ccc(NC(=O)[C@H](CCCNC(N)=O)NC(=O)[C@@H](NC(=O)CCOCCOCCOCCOCCC(=O)NCCNc2ncc(-c3cc(C)cc(F)c3)c(N3CCC(N)CC3)c2-c2nc3ccc(Cl)cc3[nH]2)C(C)C)cc1C(=O)NCC(=O)O)C(C)C [Compound 86]	0.068	4.1	1000
CC[C@H](C)[C@@H]([C@@H](CC(=O)N1CCC[C@H]1[C@H](OC)[C@@H](C)C(=O)N[C@H](C)[C@@H](O)c1ccccc1)OC)N(C)C(=O)[C@@H](NC(=O)[C@H](C(C)C)N(C)C(=O)OCc1ccc(NC(=O)[C@H](C)NC(=O)[C@@H](NC(=O)CCOCCOCCOCCOCCC(=O)NCCNc2ncc(-c3cc(C)cc(F)c3)c(N3CCC(N)CC3)c2-c2cc3ccc(Cl)cc3[nH]2)C(C)C)c(O[C@@H]2O[C@H](C(=O)O)[C@@H](O)[C@H](O)[C@H]2O)c1)C(C)C [Compound 112]	0.12	8.4	10
CC[C@H](C)[C@@H]([C@@H](CC(=O)N1CCC[C@H]1[C@H](OC)[C@@H](C)C(=O)N[C@H](C)[C@@H](O)c1ccccc1)OC)N(C)C(=O)[C@@H](NC(=O)[C@H](C(C)C)N(C)C(=O)OCc1ccc(NC(=O)[C@H](CCCNC(N)=O)NC(=O)[C@@H](NC(=O)c2cc(NC(=O)CCOCCOCCOCCOCCC(=O)NCCNc3ncc(-c4cc(C)cc(F)c4)c(N4CCC(N)CC4)c3-c3nc4ccc(Cl)cc4[nH]3)cc(C(=O)NCC(=O)O)c2)C(C)C)cc1)C(C)C [Compound 150]	0.083	8.3	53
CC[C@@H](C)[C@H]([C@H](CC(=O)N1CCCC1[C@@H](OC)[C@H](C)C(=O)N[C@@H](C)[C@H](O)c1ccccc1)OC)N(C)C(=O)[C@H](NC(=O)[C@@H](C(C)C)N(C)C(=O)OCc1ccc(NC(=O)[C@@H](C)NC(=O)[C@H](NC(=O)[C@@H](CCCO)NC(=O)CCOCCC(=O)NCCNc2ncc(-c3cc(C)cc(F)c3)c(N3CCC(N)CC3)c2-c2nc3ccc(Cl)cc3[nH]2)C(C)C)c(O[C@H]2O[C@@H](C(=O)O)[C@H](O)[C@@H](O)[C@@H]2O)c1)C(C)C (stereo partly drawn) [Compound 239]	0.16	4.9	12
CC[C@H](C)[C@@H]([C@@H](CC(=O)N1CCC[C@H]1[C@H](OC)[C@@H](C)C(=O)N[C@H](C)[C@@H](O)c1ccccc1)OC)N(C)C(=O)[C@@H](NC(=O)[C@H](C(C)C)N(C)C(=O)OCc1ccc(NC(=O)[C@H](CCCNC(N)=O)NC(=O)[C@@H](NC(=O)c2cc(NCCOCCOCCOCCOCCC(=O)NCCNc3ncc(-c4cc(C)cc(F)c4)c(N4CCC(N)CC4)c3-c3nc4ccc(Cl)cc4[nH]3)cc(C(=O)NCC(=O)O)c2)C(C)C)cc1)C(C)C [Compound 144]	0.25	21	81
CC[C@H](C)[C@@H]([C@@H](CC(=O)N1CCC[C@H]1[C@H](OC)[C@@H](C)C(=O)N[C@H](C)[C@@H](O)c1ccccc1)OC)N(C)C(=O)[C@@H](NC(=O)[C@H](C(C)C)N(C)C(=O)OCc1ccc(NC(=O)[C@H](CCCNC(N)=O)NC(=O)[C@@H](NC(=O)CCOCCOCCOCCOCCC(=O)NCCNc2ncc(-c3cc(C)cc(F)c3)c(N3CCC(N)CC3)c2-c2nc3ccc(Cl)cc3[nH]2)C(C)C)cc1C(=O)N1CC(N)C1)C(C)C [Compound 59]	0.25	2	260
CC[C@H](C)[C@@H]([C@@H](CC(=O)N1CCC[C@H]1[C@H](OC)[C@@H](C)C(=O)N[C@H](C)[C@@H](O)c1ccccc1)OC)N(C)C(=O)[C@@H](NC(=O)[C@H](C(C)C)N(C)C(=O)OCc1ccc(NC(=O)[C@H](CCCNC(N)=O)NC(=O)[C@@H](NC(=O)c2cc(NC(=O)CCOCCn3cc(CCC(=O)NCCNc4ncc(-c5cc(C)cc(F)c5)c(N5CCC(N)CC5)c4-c4nc5ccc(Cl)cc5[nH]4)nn3)cc(C(=O)NCC(=O)O)c2)C(C)C)cc1)C(C)C [Compound 155]	0.44	10	300
